Values of other authors in patent US7993684B2, “Method of inhibiting alveolar bone resorption and periodontal membrane loss and composition for internal use to be used therein” (Sunstar Inc., priority 2003, dated 2011).

Tests used:
[1] = system: periodontal disease-causing bacteria; conditions: Japanese Unexamined Patent Publication No. 1992-283518
[2] = system: alveolar bone resorption; conditions: Japanese Unexamined Patent Publication No. 1996-133969

Row | Compound | Antibacterial activity against periodontal disease-causing bacteria [1] | Inhibition of alveolar bone resorption related to periodontal disease [2]
1 | O=c1c(-c2ccc(O)cc2)coc2cc(O)cc(O)c12 [genistein] | shows antibacterial activity | 
2 | calcium pantothenate |  | inhibit alveolar bone resorption
